Publication PMC10352304 (2023)
One block for each molecule: values may come before it. *1 amine or outer side, *2 acyl side, *3 side chain or, on linkers, in order; H or OH if unused. Where a SMILES comes first, the peptide text is derived from it. Bridges are numbered along the chain shown (N, C = ends). Roman numbers before positions name the chains, in order. [ ]: non-standard residue; d: D form. Actinocin(9to1) = Cc1c2oc3c(C)ccc(C(=O)[*:1])c3nc-2c(C(=O)[*:2])c(N)c1=O; NMeV = CN[C@H](C(=O)O)C(C)C; Sar = CNCC(=O)O

Tests used:
[1] = system: CP (DNA, duplex) AGGTTGGTGAGTGATTGGAGGTT/AATCACTCACCAACCT; test: fluorescence turn-on; conditions: 20 nM CP; site size 2.4; per base
[2] = system: CP (C 18nt / P 11nt) (DNA, duplex) GGTGAGTGATTGGAGGTT/AATCACTCACC; test: BIND strand displacement fluorescence; conditions: none (no metal cations); 1x TE, 37 °C; critical binder concentration scales with duplex length
[3] = system: CP (DNA, duplex) AGGTTGGTGAGTGATTGGAGGTT/AATCACTCACCAACCT; test: BIND strand displacement fluorescence, McGhee-von Hippel fit; conditions: none (no metal cations), 1x TE, 37 °C, 20 nM CP, 10 nM invader I, per base
[4] = system: CP (C 28nt / P 21nt) (DNA, duplex) ACAAGAGGTTGGTGAGTGATTGGAGGTT/AATCACTCACCAACCTCTTGT; test: BIND strand displacement fluorescence; conditions: none (no metal cations); 1x TE, 37 °C; critical binder concentration scales with duplex length
[5] = system: CP (DNA, duplex) AGGTTGGTGAGTGATTGGAGGTT/AATCACTCACCAACCT; test: BIND strand displacement fluorescence; conditions: none (no metal cations); 1x TE, 37 °C; 20 nM CP, 10 nM invader I
[6] = system: CP (25% GC) (DNA, duplex) AATTCGATTAGCAATTGGAGGTT/AATTGCTAATCGAATT; test: BIND strand displacement fluorescence, McGhee-von Hippel fit; conditions: none (no metal cations); 1x TE, 37 °C; 20 nM CP, 10 nM invader I; per base
[7] = system: sink probe 5'-TAAAT-3' (DNA, hairpin) CGATTTACAAAAAGTAAATCG; test: competitive BIND, sink against CP; conditions: none (no metal cations); 1x TE, 37 °C; sink in up to 100-fold excess over CP
[8] = system: CP (75% GC) (DNA, duplex) GGGCTACGCGATGCGCGGAGGTT/GCGCATCGCGTAGCCC; test: BIND strand displacement fluorescence, McGhee-von Hippel fit; conditions: none (no metal cations); 1x TE, 37 °C; 20 nM CP, 10 nM invader I; per base
[9] = system: sink probe 5'-GCGCC-3' (DNA, hairpin) CGCGCGGCAAAAAGCCGCGCG; test: competitive BIND, sink against CP; conditions: none (no metal cations); 1x TE, 37 °C; sink in up to 100-fold excess over CP

Structure (SMILES): CCCN(CCCN(C)C)c1cc(C=C2Sc3ccccc3N2C)c2ccccc2[n+]1-c1ccccc1
- Kd [1]: 0.0093 µM
- binding [2]: yes
- Kd ([3]; site size 2.6, b11 prints 7.1 nM): 0.007 µM
- binding [4]: yes

Structure (SMILES): Cc1c2oc3c(C)ccc(C(=O)N[C@@H]4C(=O)N[C@H](C(C)C)C(=O)N5CCC[C@H]5C(=O)N(C)CC(=O)N(C)[C@@H](C(C)C)C(=O)O[C@@H]4C)c3nc-2c(C(=O)N[C@@H]2C(=O)N[C@H](C(C)C)C(=O)N3CCC[C@H]3C(=O)N(C)CC(=O)N(C)[C@@H](C(C)C)C(=O)O[C@@H]2C)c(N)c1=O (I: T[dV]P[Sar][NMeV] / II: T[dV]P[Sar][NMeV]; ester I:1-I:C, II:1-II:C; linker I:N-II:N via Actinocin(9to1))
- Kd [6]: 0.983 µM
- binding [7]: no
- Kd [8]: 0.083 µM

Structure (SMILES): Cn1cc(NC(=O)c2cc(NC(=O)CN=C(N)N)cn2C)cc1C(=O)NCCC(=N)N
- binding [9]: no

Structure (SMILES): CCN(CC)CCn1nc2c3c(cccc3c1=O)-c1ccccc1-2
- Kd ([3]; site size 1.3): 0.212 µM

Other lines, results leading:

- binding [5]: no
Structure (SMILES): c1ccc(C[n+]2cccc3ccccc32)cc1

- binding [5]: weak
Structure (SMILES): [Ru+2].c1cnc2c(c1)ccc1cccnc12.c1cnc2c(c1)ccc1cccnc12.c1cnc2c(c1)ccc1cccnc12
